Type in all cases: in vivo
For series [1], the system named is green peach aphid (Myzus persicae). The experiment in a line: Myzus test (spray treatment), Chinese cabbage leaf disks. The following applies: for Mortality in % after 1d: spray. An excerpt: (§1) If the actual insecticide mortality is greater than calculated, then the combination is superadditive in its kill—that is, there is a synergistic effect. In this case the mortality actually observed must be greater than the value for the expected mortality (E) calculated on the basis of the formula given above.
Myzus Test (Spray Treatment)
Solvent: 78 parts by weight of acetone
• 1.5 parts by weight of dimethylformamide Emulsifier: 0.5 part by weight of alkylaryl polyglycol ether
A suitable preparation of active ingredient is prepared by mixing one part by weight of active ingredient with the stated amounts of solvent and emulsifier and diluting the concentrate with emulsifier-containing water to the desired concentration. A suitable suspension of biological agent is prepared by dissolving the cells, spores or viruses in emulsifier-containing water in the desired concentration.
Chinese cabbage (Brassica pekinensis) leaf disks infested by all stages of the green peach aphid (Myzus persicae) are sprayed with an active ingredient and/or biological agent preparation in the desired concentration.
After the desired time, the effect in % is ascertained. Here, 100% means that all of the aphids have been killed; 0% means that no aphids have been killed. The mortality figures determined are used for calculation according to the Colby formula (see sheet 1).

In series [2] the test system is cotton (Gossypium hirsutum). The experiment in a line: Seed treatment - cotton emergence test. The following applies: after 2 days. The text has this:
Seed Treatment—Cotton Emergence Test
Seed of cotton (Gossypium hirsutum) is mixed with the desired amount of active ingredient and spores and also water. After drying, 25 seed grains in each case are sown in pots filled with sandy loam.
After 2 days, the effect in % is ascertained on the basis of the cotton plants that have emerged.

A further series concerns Meloidogyne incognita. The experiment in a line: Meloidogyne incognita test (gall formation on lettuce roots).
Source text: (§2) The anticipated effect of a given combination of two active ingredients may be calculated (cf. Colby, S. R., “Calculating Synergistic and Antagonistic Responses of Herbicide Combinations”, Weeds 15, pages 20-22, 1967) as follows: • if • X is the mortality, expressed in % of the untreated control, when active ingredient A is used in an application rate of m ppm, or m g/ha • Y is the mortality, expressed in % of the untreated control, when active ingredient B is used in an application rate of n ppm, or n g/ha • E is the mortality, expressed in % of the untreated control, when active ingredients A and B are used at application rates of m and n ppm or of m and n g/ha, • then
as §1
Meloidogyne incognita Test
Solvent: 125.0 parts by weight of acetone
A suitable preparation of active ingredient is prepared by mixing one part by weight of active ingredient with the stated amounts of solvent and diluting the concentrate with water to the desired concentration. […]
After the desired time, the nematicidal effect is determined on the basis of gall formation in %. […]

The test system of series [3] is army worm (Spodoptera frugiperda). The experiment in a line: Spodoptera frugiperda test (spray treatment), maize leaf disks. The note with it: foliar, 48 h, read-out: Mortality in % after 2d.
Source text: as §2, §1
Spodoptera frugiperda Test (Spray Treatment)
Solvent: 78.0 parts by weight of acetone
• 1.5 parts by weight of dimethylformamide Emulsifier: 0.5 part by weight of alkylaryl polyglycol ether […]
After the desired time, the effect in % is ascertained. […] The mortality figures determined are used for calculation according to the Colby formula (see sheet 1).

In a further series the test system is soya beans (Glycine max). The experiment in a line: Glycine max - growth promotion in combination with Mycorrhiza. The following applies: 44 days greenhouse, fresh roots. As to the method: Glycine max—Growth Promotion in Combination with Mycorrhiza
Seed of soya beans (Glycine max) is mixed with the desired amount of active ingredient in water. After drying, the seeds are sown in pots filled with sand and perlite (1:1). For inoculation with arbuscular mycorrhiza fungi, the sand-perlite mixture is mixed beforehand with the Mycorrhiza inoculum (AMykor GmbH; Germany) in a concentration of 25 ml/L. The seed is covered with 3 cm of Lecaton (expanded clay).
Over the following 44 days, the plants are cultivated in a greenhouse in good growth conditions. The pots are watered with a nutrient solution (Hoagland and Amon, 1950, half-concentrated solution) with a low phosphate concentration (20 μM).
The untreated control plants are cultured without arbuscular mycorrhiza fungi, but under the same conditions.
The growth-promoting effect on shoot and roots is ascertained via the weight of the fresh roots of the treated plant in comparison to the untreated control.

[4] abbreviates: Myzus persicae, foliar, 24 h, read-out: Mortality in % after 1d.
Setting [5] is: 1000 g ai/ha, 100% = all aphids killed.

The source of these data is patent US9872494B2, “Active ingredient combinations comprising pyridylethylbenzamides and other active ingredients” (priority 2010, dated 2018).

Broadly, the mortality is the share of the test organisms that died.

Consider `C/C=C(\C)C(=O)O[C@H]1C[C@@H](OC(C)=O)[C@@]2(C(=O)OC)CO[C@H]3[C@@H](O)[C@@](C)([C@]45O[C@@]4(C)[C@H]4C[C@@H]5O[C@@H]5OC=C[C@@]54O)[C@H]4[C@]1(CO[C@]4(O)C(=O)OC)[C@@H]32` [Azadirachtin, azadirachtin, reference compound], for which the mortality at 100 g/ha in series [1] (setting [4]) worked out at 0%. “Bacillus subtilis strain GB03 [Bacillus subtilis strain GB 03]”: in series [2] (0.078 g ai/kg seed), the “Emergence in % in comparison to untreated control” value (“Emergence in % in comparison” for short) was 158%. As to Metschnikowia fructicola, the “Mortality in % after 1d” value in series [1] (setting [5]) is recorded as 0%.

As for Paecilomyces lilacinus strain 251, in series [1] (5000 g ai/ha), the “Mortality in % after 1d” value was 0%. For “Bacillus amyloliquefaciens strain FZB 42”, the “Emergence in % in comparison” value in series [2] (0.075 g ai/kg seed) turned out to be 158%; in series [2] (0.15 g ai/kg seed) it was 163%. In series [1] (2000 g ai/ha), the “Mortality in % after 1d” value came to 0%. With `O=C(NCCc1ncc(C(F)(F)F)cc1Cl)c1ccccc1C(F)(F)F` [Fluopyram, N-{2-[3-chloro-5-(trifluoromethyl)-2-pyridinyl]ethyl}-2-trifluoromethylbenzamide, reference compound], the “Emergence in % in comparison” value in series [2] (0.5 g ai/kg seed) came to 100%; in series [2] (1 g ai/kg seed, untreated = 100), 133%. For the same molecule, the mortality at 0.0005 ppm with Meloidogyne incognita (Meloidogyne incognita, 504 h, read-out: Mortality in % after 21d) is 0%. Further, the mortality at 500 g/ha in series [1] (setting [4]) worked out at 0%. Besides, the mortality at 1000 g/ha in series [1] (setting [4]) and in series [3] was 0% in each case. In the series with soya beans (Glycine max) (0.1 mg/seed grain, seed treatment), the “Root weight in % in comparison to untreated control” value was found to be 116.90%. In the case of “Bacillus thuringiensis subsp. tenebrionis”, the “Mortality in % after 1d” value in series [1] (setting [5]) was 0%.

On to `O=S(=O)(CCC(F)=C(F)F)c1ncc(Cl)s1` [Fluensulfone, fluensulfone, reference compound], for which the “Mortality in % after 1d” value in series [1] (2000 g ai/ha) is listed as 0%.

For Cydia pomonella granulosis virus (CpGV), in series [1] (setting [5]), the “Mortality in % after 1d” value is recorded as 0%. With arbuscular mycorrhiza fungus, the “Root weight in % in comparison to untreated control” value in the series on soya beans (Glycine max) (Mycorrhiza inoculum 25 ml/L in sand-perlite) was found to be 133.21%. Consider Metarhizium anisopliae strain F52, for which the “Mortality in % after 21d” value with Meloidogyne incognita (5 ppm, nematicidal effect from gall formation) is listed as 0%.
